{"source": "ChEMBL document CHEMBL1275245", "about": "“Clinical and toxicodynamic evidence that high-dose pyrazinamide is not more hepatotoxic than the low doses currently used” (Antimicrob Agents Chemother, 2010)", "key": {"Homo sapiens [1]": {"tested_on": "Homo sapiens", "assay": "Pharmacokinetic parameter in TB patient serum assessed as percentage of time the compound persisted above 5 mg/L at 3000 mg/kg administered alternate day", "assay_type": "ADME, organism-based", "design": "dose 3000 mg/kg", "details": "in vivo"}, "[2]": {"assay": "Systemic clearance in TB patient serum at 1500 mg/kg daily", "assay_type": "ADME, organism-based", "design": "dose 1500 mg/kg", "details": "human"}, "Homo sapiens [3]": {"organism": "Homo sapiens", "assay": "Pharmacokinetic parameter in TB patient serum assessed as percentage of time the compound persisted above 5 mg/L at 500 mg/ kg TID", "assay_type": "ADME, organism-based", "design": "dose 500 mg/ kg", "details": "in vivo"}, "Homo sapiens [4]": {"tested_on": "Homo sapiens", "assay": "Pharmacokinetic parameter in TB patient serum assessed as percentage of time the compound persisted above 5 mg/L at 1500 mg/kg daily", "assay_type": "ADME, organism-based", "design": "dose 1500 mg/kg", "details": "in vivo"}, "[5]": {"assay": "Systemic clearance in TB patient serum at 500 mg/ kg TID", "assay_type": "ADME, organism-based", "design": "dose 500 mg/ kg", "details": "human"}, "Homo sapiens [6]": {"tested_on": "Homo sapiens", "assay": "Pharmacokinetic parameter in TB patient serum assessed as percentage of time the compound persisted above 20 mg/L at 3000 mg/kg administered alternate day", "assay_type": "ADME, organism-based", "design": "dose 3000 mg/kg", "details": "in vivo"}, "[7]": {"assay": "AUC (0 to 168 hrs) in serum of TB patient at 3000 mg/kg administered alternate day", "assay_type": "ADME, organism-based", "design": "time < 168 hr, dose 3000 mg/kg", "details": "human"}, "[8]": {"assay": "AUC (0 to 168 hrs) in serum of TB patient at 1500 mg/kg daily", "assay_type": "ADME, organism-based", "design": "time < 168 hr, dose 1500 mg/kg", "details": "human"}, "Homo sapiens [9]": {"tested_on": "Homo sapiens", "assay": "Pharmacokinetic parameter in TB patient serum assessed as percentage of time the compound persisted above 20 mg/L at 1500 mg/kg daily", "assay_type": "ADME, organism-based", "design": "dose 1500 mg/kg", "details": "in vivo"}, "Homo sapiens [10]": {"organism": "Homo sapiens", "assay": "Toxicity in TB patients assessed as arthralgia", "assay_type": "organism-based", "details": "in vivo"}, "[11]": {"assay": "Systemic clearance in TB patient serum at 3000 mg/kg administered alternate day", "assay_type": "ADME, organism-based", "design": "dose 3000 mg/kg", "details": "human"}, "Homo sapiens [12]": {"organism": "Homo sapiens", "assay": "Toxicity in TB patients assessed as death", "assay_type": "organism-based", "details": "in vivo"}, "Homo sapiens [13]": {"tested_on": "Homo sapiens", "assay": "Hepatotoxicity in TB patients assessed as elevated aspartate aminotransferase level at 30 g/kg", "assay_type": "toxicity, organism-based", "details": "in vivo, 30000 mg/kg"}, "Homo sapiens [14]": {"organism": "Homo sapiens", "assay": "Pharmacokinetic parameter in TB patient serum assessed as percentage of time the compound persisted above 10 mg/L at 500 mg/ kg TID", "assay_type": "ADME, organism-based", "design": "dose 500 mg/ kg", "details": "in vivo"}, "[15]": {"assay": "Cmax in TB patient serum at 500 mg/kg TID", "assay_type": "ADME, organism-based", "design": "dose 500 mg/kg", "details": "human"}, "Homo sapiens [16]": {"tested_on": "Homo sapiens", "assay": "Hepatotoxicity in TB patients assessed as jaundice at 3.7 g/kg/day measured after 52 days", "assay_type": "toxicity, organism-based", "details": "in vivo, 3700 mg/kg, 1248 h"}, "Homo sapiens [17]": {"tested_on": "Homo sapiens", "assay": "Hepatotoxicity in TB patients assessed as elevated aspartate aminotransferase level at 40 g/kg", "assay_type": "toxicity, organism-based", "details": "in vivo, 40000 mg/kg"}, "Homo sapiens [18]": {"tested_on": "Homo sapiens", "assay": "Hepatotoxicity in TB patients assessed as jaundice at 3.7 g/kg/day measured after 87 days", "assay_type": "toxicity, organism-based", "details": "in vivo, 3700 mg/kg, 2088 h"}, "Homo sapiens [19]": {"tested_on": "Homo sapiens", "assay": "Pharmacokinetic parameter in TB patient serum assessed as percentage of time the compound persisted above 10 mg/L at 3000 mg/kg administered alternate day", "assay_type": "ADME, organism-based", "design": "dose 3000 mg/kg", "details": "in vivo"}, "Homo sapiens [20]": {"tested_on": "Homo sapiens", "assay": "Pharmacokinetic parameter in TB patient serum assessed as percentage of time the compound persisted above 10 mg/L at 1500 mg/kg daily", "assay_type": "ADME, organism-based", "design": "dose 1500 mg/kg", "details": "in vivo"}, "Homo sapiens [21]": {"tested_on": "Homo sapiens", "assay": "Hepatotoxicity in TB patients assessed as elevated aspartate aminotransferase level at 60 g/kg", "assay_type": "toxicity, organism-based", "details": "in vivo, 60000 mg/kg"}, "[22]": {"assay": "AUC (0 to 168 hrs) in TB patient serum at 500 mg/ kg TID", "assay_type": "ADME, organism-based", "design": "time < 168 hr, dose 500 mg/ kg", "details": "human"}, "[23]": {"assay": "Cmax in TB patient serum at 1500 mg/kg daily", "assay_type": "ADME, organism-based", "design": "dose 1500 mg/kg", "details": "human"}, "Homo sapiens [24]": {"tested_on": "Homo sapiens", "assay": "Hepatotoxicity in TB patients assessed as abnormal flocculation at 3.7 g/kg/day measured after 52 days", "assay_type": "toxicity, organism-based", "details": "in vivo, 3700 mg/kg, 1248 h"}, "Homo sapiens [25]": {"tested_on": "Homo sapiens", "assay": "Hepatotoxicity in TB patients assessed as abnormal flocculation at 3.7 g/kg/day measured after 87 days", "assay_type": "toxicity, organism-based", "details": "in vivo, 3700 mg/kg, 2088 h"}, "[26]": {"assay": "Cmax in TB patient serum at 3000 mg/kg administered alternate day", "assay_type": "ADME, organism-based", "design": "dose 3000 mg/kg", "details": "human"}, "Homo sapiens [27]": {"organism": "Homo sapiens", "assay": "Pharmacokinetic parameter in TB patient serum assessed as percentage of time the compound persisted above 20 mg/L at 500 mg/ kg TID", "assay_type": "ADME, organism-based", "design": "dose 500 mg/ kg", "details": "in vivo"}}}
{"compound": "NC(=O)c1cnccn1", "note": "[PYRAZINAMIDE]", "values": [{"measurement": "Activity", "setting": "Homo sapiens [1]", "result": 48, "unit": "%"}, {"measurement": "clearance", "setting": "[2]", "result": 66.2, "unit": "mL/min"}, {"measurement": "Activity", "setting": "Homo sapiens [3]", "result": 92, "unit": "%"}, {"measurement": "Activity", "setting": "Homo sapiens [4]", "result": 74, "unit": "%"}, {"measurement": "clearance", "setting": "[5]", "result": 68.5, "unit": "mL/min"}, {"measurement": "Activity", "setting": "Homo sapiens [6]", "result": 23, "unit": "%"}, {"measurement": "AUC(0-t) at 168 h", "setting": "[7]", "result": 2160, "unit": "µg·h/mL"}, {"measurement": "AUC at 168 h", "setting": "[8]", "result": 2270, "unit": "µg·h/mL"}, {"measurement": "Activity", "setting": "Homo sapiens [9]", "result": 24, "unit": "%"}, {"measurement": "Activity", "setting": "Homo sapiens [10]", "result": "Toxic"}, {"measurement": "clearance", "setting": "[11]", "result": 69.3, "unit": "mL/min"}, {"measurement": "Activity", "setting": "Homo sapiens [12]", "result": "Toxic"}, {"measurement": "Activity", "setting": "Homo sapiens [13]", "result": "Non-toxic"}, {"measurement": "Activity", "setting": "Homo sapiens [14]", "result": 67, "unit": "%"}, {"measurement": "Cmax", "setting": "[15]", "result": 20200, "unit": "ng/mL"}, {"measurement": "Activity", "setting": "Homo sapiens [16]", "result": "Non-toxic"}, {"measurement": "Activity", "setting": "Homo sapiens [17]", "result": "Non-toxic"}, {"measurement": "Activity", "setting": "Homo sapiens [18]", "result": "Non-toxic"}, {"measurement": "Activity", "setting": "Homo sapiens [19]", "result": 35, "unit": "%"}, {"measurement": "Activity", "setting": "Homo sapiens [20]", "result": 49, "unit": "%"}, {"measurement": "Activity", "setting": "Homo sapiens [21]", "result": "Non-toxic"}, {"measurement": "AUC at 168 h", "setting": "[22]", "result": 2190, "unit": "µg·h/mL"}, {"measurement": "Cmax", "setting": "[23]", "result": 33800, "unit": "ng/mL"}, {"measurement": "Activity", "setting": "Homo sapiens [24]", "result": "Non-toxic"}, {"measurement": "Activity", "setting": "Homo sapiens [25]", "result": "Non-toxic"}, {"measurement": "Cmax", "setting": "[26]", "result": 67500, "unit": "ng/mL"}, {"measurement": "Activity", "setting": "Homo sapiens [27]", "result": 9, "unit": "%"}]}
